Test results taken from PubChem BioAssay (NCI).
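Briefly, cells in 96-well plates were exposed to five compound concentrations for 48 h, and endpoints were estimated by linear interpolation. GI50 = concentration required for 50% inhibition of growth. TGI: concentration producing complete growth inhibition.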

Tests used:
Test in all cases: growth of human tumour cells (NCI), 48 h
K-562 leukemia = system: K-562 leukemia
NCI-H460 lung = system: NCI-H460 lung
CAKI-1 renal = system: CAKI-1 renal
NCI-H522 lung = system: NCI-H522 lung
SK-MEL-2 melanoma = system: SK-MEL-2 melanoma
DU-145 prostate = system: DU-145 prostate
BT-549 breast = system: BT-549 breast
NCI-H226 lung = system: NCI-H226 lung
OVCAR-3 ovarian = system: OVCAR-3 ovarian
ACHN renal = system: ACHN renal
UO-31 renal = system: UO-31 renal
IGROV1 ovarian = system: IGROV1 ovarian
PC-3 prostate = system: PC-3 prostate
MDA-MB-231 breast = system: MDA-MB-231 breast
NCI/ADR-RES ovarian = system: NCI/ADR-RES ovarian
LOX IMVI melanoma = system: LOX IMVI melanoma
SF-539 CNS = system: SF-539 CNS
786-0 renal = system: 786-0 renal
MCF7 breast = system: MCF7 breast
SK-MEL-5 melanoma = system: SK-MEL-5 melanoma
SK-OV-3 ovarian = system: SK-OV-3 ovarian
UACC-257 melanoma = system: UACC-257 melanoma
SNB-75 CNS = system: SNB-75 CNS
OVCAR-4 ovarian = system: OVCAR-4 ovarian
A549 NSCLC = system: A549 NSCLC
SF-268 CNS = system: SF-268 CNS

Clc1ccc(-c2nc(-c3ccccc3)cn3ccnc23)cc1
GI50 (K-562 leukemia): 2.65 µM | TGI (K-562 leukemia): > 100 µM | GI50 (NCI-H460 lung): 20.2 µM | TGI (NCI-H460 lung): > 100 µM | GI50 (CAKI-1 renal): 1.49 µM | TGI (CAKI-1 renal): 17.7 µM | GI50 (NCI-H522 lung): > 100 µM | TGI (NCI-H522 lung): > 100 µM | GI50 (SK-MEL-2 melanoma): 53.4 µM | TGI (SK-MEL-2 melanoma): > 100 µM | GI50 (DU-145 prostate): 11.9 µM | TGI (DU-145 prostate): 34.9 µM | GI50 (BT-549 breast): 11.3 µM | TGI (BT-549 breast): 34.3 µM | GI50 (NCI-H226 lung): 74.7 µM | TGI (NCI-H226 lung): > 100 µM | GI50 (OVCAR-3 ovarian): 1.82 µM | TGI (OVCAR-3 ovarian): 16.8 µM | GI50 (ACHN renal): 11.4 µM | TGI (ACHN renal): 26.1 µM | GI50 (UO-31 renal): 20.2 µM | TGI (UO-31 renal): > 100 µM | GI50 (IGROV1 ovarian): 15.5 µM | TGI (IGROV1 ovarian): > 100 µM | GI50 (PC-3 prostate): 14.2 µM | TGI (PC-3 prostate): 53.7 µM | GI50 (MDA-MB-231 breast): 12.3 µM | TGI (MDA-MB-231 breast): 55.5 µM | GI50 (NCI/ADR-RES ovarian): 6.53 µM | TGI (NCI/ADR-RES ovarian): 25.9 µM | GI50 (LOX IMVI melanoma): 5.1 µM | TGI (LOX IMVI melanoma): 19.5 µM | GI50 (SF-539 CNS): 11.7 µM | TGI (SF-539 CNS): 31.8 µM | GI50 (786-0 renal): 14 µM | TGI (786-0 renal): 37.3 µM | GI50 (MCF7 breast): 7.16 µM | TGI (MCF7 breast): > 100 µM | GI50 (SK-MEL-5 melanoma): 7.3 µM | TGI (SK-MEL-5 melanoma): 27.2 µM | GI50 (SK-OV-3 ovarian): 32 µM | TGI (SK-OV-3 ovarian): > 100 µM | GI50 (UACC-257 melanoma): 20 µM | TGI (UACC-257 melanoma): 46.5 µM | GI50 (SNB-75 CNS): 13 µM | TGI (SNB-75 CNS): 72 µM | GI50 (OVCAR-4 ovarian): 14.6 µM | TGI (OVCAR-4 ovarian): 51.3 µM | GI50 (A549 NSCLC): 11 µM | TGI (A549 NSCLC): 29 µM | GI50 (SF-268 CNS): 10.6 µM | TGI (SF-268 CNS): 33 µM
